US9656988B2 (Pharmacyclics LLC, priority 2013, dated 2017)
Like-named read-outs stand apart in the source and are kept apart here.

Target: BTK (Homo sapiens (Human), UniProt Q06187)
Experiment: Btk in vitro inhibitory activity (one of Method A TR-FRET, Method B electrophoretic mobility shift, Method C radiometric filter binding)
Format: biochemical
[1] = determined using one of the methods of Example 355a, 355b and 355c, read-out: BTK IC50

Sequence of BTK (Q06187 whole entry): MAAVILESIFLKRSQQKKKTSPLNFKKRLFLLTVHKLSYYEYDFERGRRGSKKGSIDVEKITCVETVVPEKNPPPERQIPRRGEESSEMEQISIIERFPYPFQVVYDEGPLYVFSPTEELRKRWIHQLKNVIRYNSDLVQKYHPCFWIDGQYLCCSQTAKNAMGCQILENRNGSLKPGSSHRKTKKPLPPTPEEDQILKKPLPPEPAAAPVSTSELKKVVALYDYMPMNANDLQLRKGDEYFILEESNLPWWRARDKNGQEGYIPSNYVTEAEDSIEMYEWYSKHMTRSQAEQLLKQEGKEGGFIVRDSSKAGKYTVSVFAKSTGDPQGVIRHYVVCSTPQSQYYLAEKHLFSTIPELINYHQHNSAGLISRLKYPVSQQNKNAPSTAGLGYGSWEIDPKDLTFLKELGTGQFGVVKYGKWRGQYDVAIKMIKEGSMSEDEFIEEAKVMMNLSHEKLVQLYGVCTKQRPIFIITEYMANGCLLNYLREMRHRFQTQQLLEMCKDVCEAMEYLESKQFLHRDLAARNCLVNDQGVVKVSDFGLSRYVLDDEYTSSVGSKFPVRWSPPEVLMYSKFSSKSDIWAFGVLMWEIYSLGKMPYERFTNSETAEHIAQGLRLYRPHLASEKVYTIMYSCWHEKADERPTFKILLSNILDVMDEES

IC50 [1] [nM]	IC50 (read-out: Btk (IC50)) [nM]	IC50 (Btk (IC50)) [nM]	Compound	IC50 [nM]
10 to 100	10 to 100		COc1ccc(C(=O)N[C@@H]2CCCN(c3cnc(C(N)=O)c(Nc4ccc5ncccc5c4)n3)C2)cc1 [Example 120, (R)-5-(3-(4-methoxybenzamido)piperidin-1-yl)-3-(quinolin-6-ylamino)pyrazine-2-carboxamide]	
10 to 100	10 to 100		COc1ccc(C(=O)N[C@@H]2CCCN(c3cnc(C(N)=O)c(Nc4ccc5ncsc5c4)n3)C2)cc1 [Example 121, (R)-3-(benzo[d]thiazol-6-ylamino)-5-(3-(4-methoxybenzamido)piperidin-1-yl)pyrazine-2-carboxamide]	
10 to 100	10 to 100		COc1ccc(C(=O)N[C@@H]2CCCN(c3cnc(C(N)=O)c(Nc4ccc(-n5ccccc5=O)cc4)n3)C2)cc1 [Example 127, (R)-5-(3-(4-methoxybenzamido)piperidin-1-yl)-3-(4-(2-oxopyridin-1(2H)-yl)phenylamino)pyrazine-2-carboxamide]	
< 10	< 10		COc1ccc(C(=O)N[C@@H]2CCCN(c3cnc(C(N)=O)c(Nc4ccc(N5CCCCC5=O)cc4)n3)C2)cc1 [Example 128, (R)-5-(3-(4-methoxybenzamido)piperidin-1-yl)-3-(4-(2-oxopiperidin-1-yl)phenylamino)pyrazine-2-carboxamide]	
< 10	< 10		CN1CCN(c2ccc(Nc3nc(N4CCC[C@@H](NC(=O)c5ccc(C(C)(C)C)cc5)C4)cnc3C(N)=O)cc2)CC1 [Example 129, (R)-5-(3-(4-tert-butylbenzamido)piperidin-1-yl)-3-(4-(4-methylpiperazin-1-yl)phenylamino)pyrazine-2-carboxamide]	
< 10	< 10		CN1CCC(c2ccc(Nc3nc(N4CCC[C@@H](NC(=O)c5ccc(C(C)(C)C)cc5)C4)cnc3C(N)=O)cc2)CC1 [Example 130, (R)-5-(3-(4-tert-butylbenzamido)piperidin-1-yl)-3-(4-(1-methylpiperidin-4-yl)phenylamino)pyrazine-2-carboxamide]	
< 10	< 10		COc1ccc(C(=O)N[C@@H]2CCCN(c3cnc(C(N)=O)c(Nc4ccc(C5CCN(C)CC5)cc4)n3)C2)cc1 [Example 131, (R)-5-(3-(4-methoxybenzamido)piperidin-1-yl)-3-(4-(1-methylpiperidin-4-yl)phenylamino)pyrazine-2-carboxamide]	
< 10	< 10		COc1ccc(C(=O)N[C@@H]2CCCN(c3cnc(C(N)=O)c(Nc4ccc(C5CCN(C(C)C)CC5)cc4)n3)C2)cc1 [Example 134, (R)-3-(4-(1-isopropylpiperidin-4-yl)phenylamino)-5-(3-(4-methoxybenzamido)piperidin-1-yl)pyrazine-2-carboxamide]	
< 10	< 10		COc1ccc(C(=O)N[C@@H]2CCCN(c3cnc(C(N)=O)c(Nc4ccc(C5CCN(C6CCCC6)CC5)cc4)n3)C2)cc1 [Example 135, (R)-3-(4-(1-cyclopentylpiperidin-4-yl)phenylamino)-5-(3-(4-methoxybenzamido)piperidin-1-yl)pyrazine-2-carboxamide]	
10 to 100	10 to 100		COc1ccc(C(=O)N[C@@H]2CCCN(c3cnc(C(N)=O)c(Nc4ccc(C5CCN(CC#N)CC5)cc4)n3)C2)cc1 [Example 136, (R)-3-(4-(1-(cyanomethyl)piperidin-4-yl)phenylamino)-5-(3-(4-methoxybenzamido)piperidin-1-yl)pyrazine-2-carboxamide]	
10 to 100		10 to 100	COc1ccc(C(=O)N[C@@H]2CCCN(c3cnc(C(N)=O)c(Nc4ccc(C5CCN(CC(F)(F)F)CC5)cc4)n3)C2)cc1 [Example 137, (R)-5-(3-(4-methoxybenzamido)piperidin-1-yl)-3-(4-(1-(2,2,2-trifluoroethyl)piperidin-4-yl)phenylamino)pyrazine-2-carboxamide]	
< 10	< 10		COc1ccc(C(=O)N[C@@H]2CCCN(c3cnc(C(N)=O)c(Nc4ccc(C5CCN(C=O)CC5)cc4)n3)C2)cc1 [Example 138, (R)-3-(4-(1-formylpiperidin-4-yl)phenylamino)-5-(3-(4-methoxybenzamido)piperidin-1-yl)pyrazine-2-carboxamide]	
< 10	< 10		COc1ccc(C(=O)N[C@@H]2CCCN(c3cnc(C(N)=O)c(Nc4ccc(C5CCN(C(C)=O)CC5)cc4)n3)C2)cc1 [Example 139, (R)-3-(4-(1-acetylpiperidin-4-yl)phenylamino)-5-(3-(4-methoxybenzamido)piperidin-1-yl)pyrazine-2-carboxamide]	
10 to 100		10 to 100	COc1ccc(C(=O)N[C@@H]2CCCN(c3cnc(C(N)=O)c(Nc4ccc(C5CCN(C(=O)N(C)C)CC5)cc4)n3)C2)cc1 [Example 142, (R)-3-(4-(1-(dimethylcarbamoyl)piperidin-4-yl)phenylamino)-5-(3-(4-methoxybenzamido)piperidin-1-yl)pyrazine-2-carboxamide]	
10 to 100		10 to 100	COc1ccc(C(=O)N[C@@H]2CCCN(c3cnc(C(N)=O)c(Nc4ccc(C5CCN(S(C)(=O)=O)CC5)cc4)n3)C2)cc1 [Example 143, (R)-5-(3-(4-methoxybenzamido)piperidin-1-yl)-3-(4-(1-(methylsulfonyl)piperidin-4-yl)phenylamino)pyrazine-2-carboxamide]	
< 10		< 10	COc1ccc(C(=O)N[C@@H]2CCCN(c3cnc(C(N)=O)c(Nc4ccc(N5CCC(C(=O)N(C)C)CC5)cc4)n3)C2)cc1 [Example 144, (R)-3-(4-(4-(dimethylcarbamoyl)piperidin-1-yl)phenylamino)-5-(3-(4-methoxybenzamido)piperidin-1-yl)pyrazine-2-carboxamide]	
< 10	< 10		CS(=O)(=O)c1ccc(Nc2nc(N3CCC[C@@H](NC(=O)N4CCCCC4)C3)cnc2C(N)=O)cc1 [Example 145, (R)-3-(4-(methylsulfonyl)phenylamino)-5-(3-(piperidine-1-carboxamido)piperidin-1-yl)pyrazine-2-carboxamide]	
10 to 100		10 to 100	CN1CCN(c2ccc(Nc3nc(N4CCC[C@@H](NC(=O)N5CCCCC5)C4)cnc3C(N)=O)cc2)CC1 [Example 146, (R)-3-(4-(4-methylpiperazin-1-yl)phenylamino)-5-(3-(piperidine-1-carboxamido)piperidin-1-yl)pyrazine-2-carboxamide]	
< 10	< 10		CN1CCC(c2ccc(Nc3nc(N4CCC[C@@H](NC(=O)N5CCCCC5)C4)cnc3C(N)=O)cc2)CC1 [Example 147, (R)-3-(4-(1-methylpiperidin-4-yl)phenylamino)-5-(3-(piperidine-1-carboxamido)piperidin-1-yl)pyrazine-2-carboxamide]	
< 10	< 10		NC(=O)c1ncc(N2CCC[C@@H](NC(=O)N3CCCCC3)C2)nc1Nc1ccc(C2CCN(C=O)CC2)cc1 [Example 148, (R)-3-(4-(1-formylpiperidin-4-yl)phenylamino)-5-(3-(piperidine-1-carboxamido)piperidin-1-yl)pyrazine-2-carboxamide]	

Compound	IC50 [1] [nM]	IC50 (read-out: Btk (IC50)) [nM]	IC50 (Btk (IC50)) [nM]	IC50 [nM]
COc1ccc(C(=O)N[C@@H]2CCCN(c3cnc(C(N)=O)c(Nc4ccc(C5CCOCC5)cc4)n3)C2)cc1 [Example 122, (R)-5-(3-(4-methoxybenzamido)piperidin-1-yl)-3-(4-(tetrahydro-2H-pyran-4-yl)phenylamino)pyrazine-2-carboxamide]	< 10			
COc1ccc(C(=O)N[C@@H]2CCCN(c3cnc(C(N)=O)c(Nc4ccc(N5CCOCC5)cc4)n3)C2)cc1 [Example 123, (R)-5-(3-(4-methoxybenzamido)piperidin-1-yl)-3-(4-morpholinophenylamino)pyrazine-2-carboxamide]	< 10			
COc1ccc(C(=O)N[C@@H]2CCCN(c3cnc(C(N)=O)c(Nc4ccc(N5CCOCC5)nc4)n3)C2)cc1 [Example 124, (R)-5-(3-(4-methoxybenzamido)piperidin-1-yl)-3-(6-morpholinopyridin-3-ylamino)pyrazine-2-carboxamide]	< 10			10 to 100
COc1ccc(C(=O)N[C@@H]2CCCN(c3cnc(C(N)=O)c(Nc4ccc(N5CCOCC5)c(F)c4)n3)C2)cc1 [Example 125, (R)-3-(3-fluoro-4-morpholinophenylamino)-5-(3-(4-methoxybenzamido)piperidin-1-yl)pyrazine-2-carboxamide]	< 10			
COc1ccc(C(=O)N[C@@H]2CCCN(c3cnc(C(N)=O)c(Nc4ccc(N5CCOCC5=O)cc4)n3)C2)cc1 [Example 126, (R)-5-(3-(4-methoxybenzamido)piperidin-1-yl)-3-(4-(3-oxomorpholino)phenylamino)pyrazine-2-carboxamide]	< 10			10 to 100
CCN1CCC(c2ccc(Nc3nc(N4CCC[C@@H](NC(=O)c5ccc(OC)cc5)C4)cnc3C(N)=O)cc2)CC1 [Example 132, (R)-3-(4-(1-ethylpiperidin-4-yl)phenylamino)-5-(3-(4-methoxybenzamido)piperidin-1-yl)pyrazine-2-carboxamide]	< 10	< 10		
COc1ccc(C(=O)N[C@@H]2CCCN(c3cnc(C(N)=O)c(Nc4ccc(C5CCN(C6CC6)CC5)cc4)n3)C2)cc1 [Example 133, (R)-3-(4-(1-cyclopropylpiperidin-4-yl)phenylamino)-5-(3-(4-methoxybenzamido)piperidin-1-yl)pyrazine-2-carboxamide]	< 10	< 10		
CCC(=O)N1CCC(c2ccc(Nc3nc(N4CCC[C@@H](NC(=O)c5ccc(OC)cc5)C4)cnc3C(N)=O)cc2)CC1 [Example 140, (R)-5-(3-(4-methoxybenzamido)piperidin-1-yl)-3-(4-(1-propionylpiperidin-4-yl)phenylamino)pyrazine-2-carboxamide]	< 10			
COc1ccc(C(=O)N[C@@H]2CCCN(c3cnc(C(N)=O)c(Nc4ccc(C5CCN(C(=O)CC#N)CC5)cc4)n3)C2)cc1 [Example 141, (R)-3-(4-(1-(2-cyanoacetyl)piperidin-4-yl)phenylamino)-5-(3-(4-methoxybenzamido)piperidin-1-yl)pyrazine-2-carboxamide]	< 10			
